Experimental data reported in patent US5260050A, “Methods and compositions for magnetic resonance imaging comprising superparamagnetic ferromagnetically coupled chromium complexes” (priority 1990, dated 1993).

Key:
[1] = tested on: tumor; settings: in vivo; cited from earlier work
[2] = in vivo; cited from earlier work
[3] = typically 15 MHz; cited from earlier work
[4] = cited from earlier work
[5] = tested on: BRO-strain human malignant melanomas; experiment: MR imaging of human melanoma xenografts in nude mice; type: in vivo, human; Swiss nude mice; settings: i.v.
Procedure: The strong paramagnetic metal ion, gadolinium (Gd^+3), was chelated stoichiometrically to DTPA-Dextran 70 polymer, whose preparation is described in Example 1, paragraph 2 (improved formulation). Swiss nude mice were inoculated with BRO-strain human malignant melanomas, and these were allowed to grow to a 1-1.5 cm diameter. Moderately T1-weighted MR imaging (TR=500 msec, TE=40 msec) was performed in a standard Diasonics™ medical imager and a 30-cm RF head coil, before and after intravenous injection of equivalent doses of Gd-DTPA-Dextran-70 (0.03 mmol Gd/kg) or Gd-DTPA (0.1 mmol/kg) contrast agent. […] It will also be recognized that much lower doses of the stronger superparamagnetics (including doses below about 0.01 mmol/kg, versus 0.1 mmol/kg for Gd-DTPA) can be used to obtain effective MRI contrast enhancement; and that much faster, more heavily T1-weighted pulse sequences can be implemented in the presence of superparamagnetic-polymer conjugates or paired-ion complexes.

[6] = tested on: VX2 carcinoma cells; experiment: Histochemical platinum staining of perfused VX2 tumors; type: in vivo, rabbit; settings: intraarterial perfusion
Procedure: At 5 to 15 minutes postinjection, the animals were sacrificed, their lungs removed and fixed with intratracheal buffered formalin, tissue sections cut at 8 microns thickness, and the sections stained using a newly devised method for platinum which comprises a microwave-augmented iron-type stain (60° C.×2 minute×3 cycles) using a 1:1 mixture of 2% ferriferocyanide reagent and 4% HCl. […] To those skilled in the art, additional evidence for selective lung localization, was obtained by injecting intravenously, analogous (subembolizing) heparin-coated nanoparticles containing encapsulated amphotericin B, into identical mice, homogenizing the lungs, and documenting an 8-fold increment in drug levels over native amphotericin B (deoxycholate formulation, Fungizone; Squibb) recovered at 1 to 3 hours postinjection.
Additional documentation for maintenance of the cisplatin-carrier paired-ion complex in vivo was obtained as follows. […] Animals were sacrificed at 15 minutes, and the tumors and organs were homogenized extracted and analyzed by atomic absorption for tissue platinum concentrations, as shown in Table 1.
Additionally, histochemical platinum stains were performed on the tumor tissues, as described in Example 7.
Microinhomogeneities of tissue heating represent a major problem in hyperthermia treatment of tumors. […]

[7] = Permeability of tumor vascular walls; settings: transport by a polymeric carrier
[8] = tested on: tumor cells; experiment: Histology of heparin carrier transport into tumor cells; settings: histologically (not shown)

**Q.** Which “Retention in tumor interstitium / tumor enhancement of comparator” value [1] does the source give for `CNC[C@H](O)[C@@H](O)[C@H](O)[C@H](O)CO.CNC[C@H](O)[C@@H](O)[C@H](O)[C@H](O)CO.O=C([O-])CN(CCN(CC(=O)[O-])CC(=O)O)CCN(CC(=O)[O-])CC(=O)O.[Gd+3]` [Gd-DTPA, gadolinium-diethylenetriaminepentaacetate (Gd-DTPA) dimeglumine] here?
**A.** 10 to 45 min

**Q.** And the “Biodistribution, share of total body water” value [2]?
**A.** ca. 35 % of total body water

**Q.** What about the “Relaxivity at higher clinical radio frequencies” value [3] of the same molecule?
**A.** moderate decrease in relaxivity

**Q.** And the Blood clearance half-time ([4]; bloodstream)?
**A.** 20 min

**Q.** And the “Fading of tumor contrast enhancement” value ([4]; by 30 minutes postcontrast)?
**A.** almost complete fading (tumor clearance)

**Q.** And the “Acute hepatic uptake interval” value ([4]; in vivo)?
**A.** 5 to 45 min

**Q.** What about the “Postinjection contrast interval / imaging window” value ([4]; in vivo) of the same molecule?
**A.** 10 to 45 min

**Q.** And the Retained fraction ([4]; in vivo)?
**A.** less than 0.5%

**Q.** And the “Fraction sequestered in the kidneys” value ([4]; intravenous)?
**A.** > 90%

**Q.** What about the “Fading of tumor enhancement” value ([5]; 0.1 mmol/kg, by one hour) of the same molecule?
**A.** completely faded

**Q.** What about the “Postcontrast interval at which optimal tumor enhancement began” value ([5]; 0.03 mmol Gd/kg (Gd-DTPA-dextran) or 0.1 mmol/kg (Gd-DTPA), TR=500, TE=40 msec) of the same molecule?
**A.** 10 min

**Q.** Which Aggregated staining [6] does the source give for `N.N.[Cl][Pt][Cl]` [cisplatin, cis-dichlorodiamine platinum] here?
**A.** absent

**Q.** For `OCC(O)CO` [glycerol], which “Permeability of tumor vascular walls” value [7] is on record?
**A.** increases the permeability of the vascular walls in the tumorous region

**Q.** With heparin as the molecule, how does the “Intracellular transport in tumor cells” value [8] read?
**A.** transported inside tumor cells
